Measurements: patent US8592374B2, “Neurotrophic peptides” (Research Foundation for Mental Hygiene, Inc., priority 2007, dated 2013)

Experiments:
[1] = tested on: dentate gyrus progenitor cells; assay: Cell proliferation (BrdU labeled cells) in the dentate gyrus of mice given CNTF peptides i.p.; assay type: in vivo
Excerpt: (§1) All experiments involving mice were done on 8-10 month old female retired breeders of C57BL6 background. A total of 33 mice were divided into 10 groups of 3 animals each (except control group which had 6 mice). The groups are described in Table 1. Details of CNTF peptides are described in Table 2.
(§2) The animals were kept in groups of 3 per cage. The mice were given daily intraperitoneal injections of four CNTF peptides either separately or in a mixture for 2 weeks as described in Table 1. From day 2, BrdU (Bromodeoxyuridine; 150 mg/Kg) was added to the injections. The animals were sacrificed 24 hours after the last injection. Briefly, the animals were perfused transcardially with PBS and their brains taken out and dissected into halves. One hemisphere from each animal was frozen for biochemical analysis and the other was fixed in 4% paraformaldehyde for 48 hours followed by equilibration in 30% sucrose in PBS overnight. These were then processed for immunohistochemistry.
Fixed tissues were cut into 40 μm sections on a freezing sliding microtome. One in 5 sections per brain was processed for BrdU staining and visualized by immunoflorecence. Cell counting was done on these sections to determine the number of BrdU labeled cells (representing newly born cells) in the dentate gyrus of the hippocampus. The area of counting was limited to the granule cell layer and the subgranular zone (a two-nucleus thick layer adjacent to the granule cell layer). For counting purposes, the dentate gyrus was divided into two areas, the outer granule cell layer (oGCL) consisting of one half of the granule cell layer, and the subgranular zone (SGZ) of the inner half (towards the hilus) of the granule cell layer plus a two-nucleus thick layer adjacent to the outer border of the hilus. Cell counting was done on confocal images of the sections according to the optical dissector principle. Volumetric analysis was carried out with the help of Image Pro software.
as §2, with “table” for “Table”, “injection (FIG. 1).” for “injection.”
(§3) Fixed tissues were cut into 40 μm sections on a freezing sliding microtome. One in 5 sections per brain was processed for BrdU staining and visualized by immunoflorecence. Cell counting was done on these sections to determine the number of BrdU labeled cells (representing newly born cells) in the dentate gyrus of the hippocampus. The area of counting was limited to the granule cell layer and the subgranular zone (a two-nucleus thick layer adjacent to the granule cell layer). For counting purposes, the dentate gyrus was divided into two areas, the outer granule cell layer (oGCL) consisting of out half of the granule cell layer, and the […] comprising of the inner half (towards the hilus) of the granule cell layer plus a two-nucleus thick layer adjacent to the outer border of the hilus. Cell counting was done on confocal images of the sections according to the optical dissector principle. Volumetric analysis was carried out with the help of Image Pro software.

[2] = tested on: dentate gyrus progenitors; assay: DCX expression in BrdU labeled progenitors in the dentate gyrus; assay type: in vivo, mice; settings: 14 day treatment group
Excerpt: as §1
as §2, with “table” for “Table”, “injection (FIG. 1).” for “injection.”
as §3

dentate gyrus = assay: MAP2 and synaptophysin immunoreactivity in the dentate gyrus (mean pixel intensity), Example 3; assay type: in vivo, mice; settings: mean pixel intensity in outlined area
Procedure: as §2, with “table” for “Table”, “injection (FIG. 1).” for “injection.”

mice = assay: Morris Water Maze, Peptide 6 subcutaneous pellets; assay type: in vivo; settings: 30 day group
Procedure: Behavioral tests employing Morris Water maze task-based memory acquisition, retention and recall paradigms have also been carried out. Two groups of 18 mice each were treated with Peptide 6/Placebo containing implantable subcutaneous pellets with user specified timed release kinetics: 14 days for group 1 and 30 days for group 2.

[3] = tested on: signal transduction of LIF and CNTF; assay: Interference with signal transduction of LIF and CNTF
[4] = both concentrations (0.5 and 5 nmoles/animal)

Substance: Ac-VGDGGLFEKKL-NH2 [Peptide 6]
- cell proliferation in the SGZ (subgranular zone) [1, 4]: increased cell proliferation
- cell proliferation in the oGCL (outer portion of the granule cell layer) [1, 4]: increased cell proliferation
- proliferation of dentate gyrus progenitor cells compared with Peptide 9 ([1]; daily i.p. injections for 2 weeks): more proliferation than Peptide 9
- proliferation of dentate gyrus progenitor cells ([1]; daily i.p. injections for 2 weeks, BrdU labeling, 8-10 month old female C57BL6 mice): statistically significant increase
- differentiation of dentate gyrus progenitors into DCX (doublecortin) expressing cells [2]: two fold increase
- MAP2 immunoreactivity in the dentate gyrus (dentate gyrus): statistically significant increase
- synaptophysin immunoreactivity in the dentate gyrus (dentate gyrus): statistically significant increase
- memory acquisition (time spent and distance covered in the target quadrant), Morris Water Maze (mice): significant improvement in memory acquisition
- interference with signal transduction of LIF versus CNTF [3]: interferes with the signal transduction of LIF more than with that of CNTF
